Measurements from US20050042283A1, “Histamine and CCK2/gastrin receptor blockade in the treatment of acid-peptic disease and cancer” (UNIVERSITY OF MASSACHUSETTS, priority 2003, published 2005).

What was measured:
[1] = system: TNF-alpha; assay: Real-time RT-PCR of cytokine expression: TNF-alpha; assay type: in vivo; conditions: 6 months, versus untreated mice
Method: Real-time RT-PCR assay of growth factors and cytokine expression profiles Total RNAs were extracted from a sample of whole stomach from each animal with Trizol (Invitrogen, Calif.) and five micrograms of total RNA were used for first strand cDNA synthesis using Superscript II cDNA amplification System (Invitrogen, Calif.) following manufacturer's instructions. Real-time PCR was performed as above using RT-PCR primers for each gene as listed below. All primers were designed using Lasergene ver5.0 software (DNASTAR inc., Madison, Wis.). Results were calculated by minus delta delta threshold cycle (-ΔΔCt) method (Livak, K. J. et al., 2001). Briefly, the threshold cycle Ct1 of each sample reaction was deducted from the threshold cycle Ct2 of GAPDH reaction for normalization, and then deducted from the threshold cycle Ct3 of calibration control (45 cycles in this experiment), i.e., the final result was represented by the formula; Ct3-(Ct1-Ct2). […]

[2] = system: Helicobacter felis; assay: H. felis infection status (Warthin-Starry staining, IgG ELISA, real-time PCR); assay type: in vivo; conditions: quantitative real-time PCR; n=6
From the text: The insulin-gastrin (INS-GAS) transgenic mice (FVB/N background) have been described previously (Wang, T. C. et al., 2000; Wang T. C. et al., 1993) and were free of specific pathogens. Animals were housed in microisolator, solid-bottomed polycarbonate cages, fed a commercially prepared pelleted diet, and given water ad libitum. One hundred twenty four (124) male INS-GAS mice at 2 or 3 months of age were inoculated with Helicobacter felis (ATCC 49179) as previously described (Wang, T. C. et al., 2000). Infection status was confirmed at 14 weeks and 26 weeks post inoculation by enzyme-linked immunosorbent assay (ELISA) to measure immunoglobulin IgG antibody to H. felis, and by quantitative real-time PCR assays of gastric corpus tissue at necropsy as described below. […]
At necropsy, linear strips extending from the squamocolumnar junction through the proximal duodenum were fixed in 10% neutral-buffered formalin, paraffin-embedded, cut at 5 microns, and stained with hematoxylin and eosin. Indices of injury in the gastric cardia/corpus and antrum were scored on an ordinal scale from 0 to 4 in increments of 0.5 by a single veterinary pathologist (A.B.R.) blinded to treatment groups. […]
Plasma gastrin levels (COOH-terminally amidated gastrin) were determined by radioimmunoassay using rabbit antiserum L2 that reacts similarly with G17 and […]. […]

1-methyl-5-((3-(3-(1-piperidinylmethyl)phenoxy)propyl)amino)-1H-1,2,4-triazole-3-ethanol [Loxtidine]
TNF-alpha expression level ([1]; listed as Loxtidine alone): significantly lower level | TNF-alpha expression level ([1]; listed as loxtidine alone): significantly down-regulated | H. felis DNA copy numbers per gastric corpus DNA (copy/μg) compared with non drug treated mice [2]: no significant difference
